These results are taken from patent US9278083B2, “Methods for purifying trans-(−)-Δ9-tetrahydrocannabinol and trans-(+)-Δ9-tetrahydrocannabinol” (SVC Pharma LP, priority 2004, dated 2016).

The nature of the data set: Storage stability of crystalline (±)-Δ^9-THC at 25° C.

With `CCCCCc1cc(O)c2c(c1)OC(C)(C)[C@@H]1CCC(C)=C[C@@H]21` (racemic) [crystalline (±)-Δ^9-THC, (±)-Δ^9-THC], for the setting “off-white crystals of Example 17, at 25° C. in the presence of air and laboratory lighting”, the Stability on storage entry is “stable”. For the same molecule, where the note is “white crystalline solid of Example 15, after at least three days at 25° C.”, the “Appearance (colour) on storage” value is recorded as “remained white”.
